Test results: the NIST ThermoML archive (doi:10.1021/acs.jced.7b00106)
Numbers after ± are expanded uncertainties.

Conditions: Liquid, Hot wire method

FC(F)(F)/C=C/Cl [(E)-1-chloro-3,3,3-trifluoroprop-1-ene]
Conditions	thermal conductivity [W/m/K]
263.11 K, 10284 kPa	0.09779 ± 0.0036
263.11 K, 15941 kPa	0.1 ± 0.0031
263.12 K, 275 kPa	0.09368 ± 0.0028
263.12 K, 5037 kPa	0.09578 ± 0.0032
263.3 K, 65213 kPa	0.1155 ± 0.0043
263.31 K, 42853 kPa	0.1092 ± 0.0037
263.34 K, 36413 kPa	0.1071 ± 0.0032
263.35 K, 59142 kPa	0.1143 ± 0.0054
263.39 K, 51112 kPa	0.1115 ± 0.0034
263.4 K, 29224 kPa	0.1049 ± 0.0032
263.45 K, 22281 kPa	0.1026 ± 0.0034
263.48 K, 65190 kPa	0.115 ± 0.0043
263.49 K, 15926 kPa	0.1002 ± 0.0047
263.5 K, 10264 kPa	0.0981 ± 0.0046
263.5 K, 42848 kPa	0.1085 ± 0.0034
263.52 K, 5059 kPa	0.09603 ± 0.0038
263.53 K, 267 kPa	0.09392 ± 0.0032
263.53 K, 36413 kPa	0.1068 ± 0.0034
263.54 K, 59138 kPa	0.1137 ± 0.0039
263.58 K, 51103 kPa	0.1112 ± 0.0038
263.59 K, 29225 kPa	0.1044 ± 0.0032
263.64 K, 22275 kPa	0.1022 ± 0.0039
263.7 K, 15944 kPa	0.09988 ± 0.0034
263.71 K, 10281 kPa	0.09774 ± 0.003
263.73 K, 5041 kPa	0.09557 ± 0.0033
263.75 K, 278 kPa	0.09344 ± 0.0035
263.84 K, 65191 kPa	0.1154 ± 0.0036
263.88 K, 42851 kPa	0.1087 ± 0.0035
263.91 K, 36412 kPa	0.1071 ± 0.0036
263.95 K, 51092 kPa	0.1113 ± 0.0042
263.98 K, 29226 kPa	0.1045 ± 0.004
264.05 K, 65174 kPa	0.1149 ± 0.0038
264.1 K, 42852 kPa	0.1085 ± 0.0033
264.11 K, 59122 kPa	0.1132 ± 0.0058
264.13 K, 36411 kPa	0.1066 ± 0.0043
264.17 K, 51091 kPa	0.1108 ± 0.0044
264.21 K, 29227 kPa	0.1042 ± 0.0038
281.25 K, 20968 kPa	0.09541 ± 0.022
281.29 K, 10961 kPa	0.09337 ± 0.0087
281.3 K, 3101 kPa	0.08933 ± 0.003
281.3 K, 6243 kPa	0.09051 ± 0.0061
281.31 K, 203 kPa	0.08831 ± 0.0064
281.31 K, 16036 kPa	0.09555 ± 0.0064
281.32 K, 20959 kPa	0.09554 ± 0.0041
281.36 K, 10962 kPa	0.09248 ± 0.0068
281.38 K, 3093 kPa	0.0889 ± 0.0029
281.38 K, 6225 kPa	0.09019 ± 0.0045
281.39 K, 193 kPa	0.08772 ± 0.0054
281.61 K, 39518 kPa	0.1031 ± 0.0039
281.62 K, 46215 kPa	0.1057 ± 0.0032
281.62 K, 55364 kPa	0.1084 ± 0.0033
281.64 K, 16024 kPa	0.09394 ± 0.0069
281.64 K, 33249 kPa	0.1009 ± 0.0057
281.64 K, 64739 kPa	0.1107 ± 0.0045
281.65 K, 20972 kPa	0.09689 ± 0.0067
281.65 K, 27078 kPa	0.0987 ± 0.0031
281.7 K, 10959 kPa	0.09251 ± 0.0069
281.71 K, 39517 kPa	0.103 ± 0.0041
281.71 K, 55366 kPa	0.1082 ± 0.004
281.72 K, 6236 kPa	0.09039 ± 0.0029
281.72 K, 46217 kPa	0.1053 ± 0.0033
281.73 K, 3096 kPa	0.08936 ± 0.0039
281.73 K, 33252 kPa	0.1011 ± 0.0032
281.73 K, 64721 kPa	0.1106 ± 0.0042
281.74 K, 201 kPa	0.08787 ± 0.0061
281.75 K, 16022 kPa	0.09421 ± 0.0077
281.75 K, 20962 kPa	0.09616 ± 0.0055
281.75 K, 27071 kPa	0.09865 ± 0.0038
281.8 K, 10956 kPa	0.0923 ± 0.0029
281.83 K, 6219 kPa	0.09017 ± 0.0027
281.85 K, 185 kPa	0.08733 ± 0.0031
281.85 K, 3101 kPa	0.08903 ± 0.0037
282.03 K, 55362 kPa	0.1085 ± 0.0044
282.04 K, 64705 kPa	0.1107 ± 0.0034
282.05 K, 39515 kPa	0.1034 ± 0.0032
282.05 K, 46209 kPa	0.1055 ± 0.0038
282.08 K, 33242 kPa	0.1012 ± 0.0031
282.1 K, 27075 kPa	0.09876 ± 0.003
282.11 K, 16012 kPa	0.09449 ± 0.0041
282.11 K, 20964 kPa	0.09638 ± 0.0036
282.15 K, 46205 kPa	0.1054 ± 0.0038
282.15 K, 55358 kPa	0.108 ± 0.0044
282.15 K, 64700 kPa	0.1104 ± 0.0034
282.16 K, 39512 kPa	0.103 ± 0.0031
282.18 K, 10959 kPa	0.09237 ± 0.0029
282.2 K, 33255 kPa	0.101 ± 0.0031
282.21 K, 6234 kPa	0.09065 ± 0.0029
282.22 K, 3104 kPa	0.08891 ± 0.003
282.23 K, 27070 kPa	0.09861 ± 0.0031
282.24 K, 198 kPa	0.08741 ± 0.0029
282.24 K, 16024 kPa	0.0943 ± 0.0032
282.24 K, 20959 kPa	0.09631 ± 0.0037
282.31 K, 10962 kPa	0.09207 ± 0.0028
282.35 K, 6225 kPa	0.09024 ± 0.0028
282.37 K, 3126 kPa	0.08877 ± 0.0027
282.38 K, 188 kPa	0.08744 ± 0.0032
282.5 K, 55349 kPa	0.108 ± 0.0051
282.5 K, 64686 kPa	0.1105 ± 0.0035
282.52 K, 39509 kPa	0.103 ± 0.0034
282.52 K, 46199 kPa	0.1053 ± 0.0032
282.57 K, 33243 kPa	0.101 ± 0.0038
282.6 K, 27082 kPa	0.09879 ± 0.003
282.62 K, 16026 kPa	0.09446 ± 0.0029
282.62 K, 20964 kPa	0.09651 ± 0.003
282.63 K, 64675 kPa	0.1105 ± 0.0035
282.64 K, 55348 kPa	0.1078 ± 0.0035
282.67 K, 39508 kPa	0.103 ± 0.0032
282.67 K, 46193 kPa	0.105 ± 0.0034
282.71 K, 10958 kPa	0.09238 ± 0.0028
282.73 K, 33247 kPa	0.1009 ± 0.0032
282.75 K, 6236 kPa	0.09029 ± 0.0034
282.75 K, 27089 kPa	0.09858 ± 0.003
282.78 K, 3125 kPa	0.08898 ± 0.0028
282.78 K, 20962 kPa	0.09627 ± 0.0031
282.79 K, 16015 kPa	0.09427 ± 0.003
282.8 K, 194 kPa	0.08765 ± 0.0027
282.88 K, 10957 kPa	0.09201 ± 0.0028
282.92 K, 6218 kPa	0.09006 ± 0.0027
282.95 K, 3110 kPa	0.08875 ± 0.0028
282.97 K, 194 kPa	0.08733 ± 0.0028
282.99 K, 64664 kPa	0.1105 ± 0.0034
283 K, 55335 kPa	0.1078 ± 0.0033
283.04 K, 46194 kPa	0.1053 ± 0.0032
283.06 K, 39510 kPa	0.1032 ± 0.0031
283.12 K, 33245 kPa	0.1008 ± 0.0031
283.15 K, 64649 kPa	0.1103 ± 0.0033
283.16 K, 27095 kPa	0.09871 ± 0.003
283.18 K, 20963 kPa	0.09653 ± 0.0031
283.18 K, 55341 kPa	0.1078 ± 0.0034
283.21 K, 16028 kPa	0.09435 ± 0.0034
283.21 K, 46185 kPa	0.105 ± 0.0032
283.24 K, 39508 kPa	0.103 ± 0.0031
283.29 K, 10953 kPa	0.09216 ± 0.0028
283.29 K, 33245 kPa	0.1006 ± 0.0032
283.34 K, 27084 kPa	0.09839 ± 0.0034
283.35 K, 6234 kPa	0.09024 ± 0.0033
283.38 K, 3103 kPa	0.08892 ± 0.0028
283.38 K, 20960 kPa	0.09617 ± 0.0031
283.39 K, 16020 kPa	0.09411 ± 0.0032
283.42 K, 178 kPa	0.08755 ± 0.0027
283.5 K, 10953 kPa	0.09198 ± 0.0028
283.54 K, 64641 kPa	0.1105 ± 0.0035
283.55 K, 6234 kPa	0.08992 ± 0.003
283.57 K, 55328 kPa	0.108 ± 0.0033
283.59 K, 3103 kPa	0.08855 ± 0.0033
